Laboratory results as given in ChEMBL document CHEMBL1151757, “Synthesis, radiosynthesis, and biological evaluation of fluorine-18-labeled 2beta-carbo(fluoroalkoxy)-3beta-(3'-((Z)-2-haloethenyl)phenyl)nortropanes: candidate radioligands for in vivo imaging of the serotonin transporter with positron emission tomography” (J Med Chem, 2008).

Experiments:
[1] = Ratio of drug uptake in pons to cerebellum in anesthetized cynomolgus monkey after 145 mins postinjection; type: ADME, organism-based, Macaca fascicularis; conditions: in vivo
Pons [2] = test: Drug uptake in anesthetized cynomolgus monkey brain pons after 55 mins postinjection; type: ADME, organism-based, Macaca fascicularis; conditions: in vivo
Pons [3] = test: Drug uptake in anesthetized cynomolgus monkey brain pons after 215 mins postinjection; type: ADME, organism-based, Macaca fascicularis; conditions: in vivo
[4] = Drug uptake in anesthetized cynomolgus monkey brain occipital lobe after 45 mins postinjection; type: ADME, organism-based, Macaca fascicularis; conditions: in vivo, 0.75 h
[5] = Drug uptake in anesthetized cynomolgus monkey brain occipital lobe after 0.5 mins postinjection; type: ADME, organism-based, Macaca fascicularis; conditions: in vivo
Putamen [6] = test: Drug uptake in anesthetized cynomolgus monkey brain putamen after 22.5 mins postinjection; type: ADME, organism-based, Macaca fascicularis; design: unit not given here; conditions: in vivo, 0.375 h
[7] = Ratio of drug uptake in putamen to cerebellum in anesthetized cynomolgus monkey after 9.5 mins postinjection; type: ADME, organism-based, Macaca fascicularis; conditions: in vivo
[8] = Ratio of drug uptake in thalamus to cerebellum in anesthetized cynomolgus monkey after 27.5 mins postinjection; type: ADME, organism-based, Macaca fascicularis; conditions: in vivo
[9] = Ratio of drug uptake in pons to cerebellum in anesthetized cynomolgus monkey after 95 mins postinjection; type: ADME, organism-based, Macaca fascicularis; conditions: in vivo
Medulla [10] = test: Drug uptake in anesthetized cynomolgus monkey brain medulla after 175 mins postinjection; type: ADME, organism-based, Macaca fascicularis; conditions: in vivo
Thalamus [11] = test: Drug uptake in anesthetized cynomolgus monkey brain thalamus after 4.5 mins postinjection; type: ADME, organism-based, Macaca fascicularis; design: unit not given here; conditions: in vivo, 0.075 h
Pons [12] = test: Drug uptake in anesthetized cynomolgus monkey brain pons after 6.5 mins postinjection; type: ADME, organism-based, Macaca fascicularis; conditions: in vivo
Midbrain [13] = test: Drug uptake in anesthetized cynomolgus monkey brain midbrain after 125 mins postinjection; type: ADME, organism-based, Macaca fascicularis; design: unit not given here; conditions: in vivo
Pons [14] = test: Drug uptake in anesthetized cynomolgus monkey brain pons after 2.5 mins postinjection; type: ADME, organism-based, Macaca fascicularis; conditions: in vivo
Pons [15] = test: Drug uptake in anesthetized cynomolgus monkey brain pons after 4.5 mins postinjection; type: ADME, organism-based, Macaca fascicularis; conditions: in vivo, 0.075 h
Medulla [16] = test: Drug uptake in anesthetized cynomolgus monkey brain medulla after 22.5 mins postinjection; type: ADME, organism-based, Macaca fascicularis; conditions: in vivo, 0.375 h
[17] = Ratio of drug uptake in caudate to cerebellum in anesthetized cynomolgus monkey after 0.5 mins postinjection; type: ADME, organism-based, Macaca fascicularis; conditions: in vivo
Midbrain [18] = test: Drug uptake in anesthetized cynomolgus monkey brain midbrain after 75 mins postinjection; type: ADME, organism-based, Macaca fascicularis; design: unit not given here; conditions: in vivo, 1.25 h
Caudate [19] = test: Drug uptake in anesthetized cynomolgus monkey brain caudate after 2.5 mins postinjection; type: ADME, organism-based, Macaca fascicularis, Caudate nucleus; conditions: in vivo
Midbrain [20] = test: Drug uptake in anesthetized cynomolgus monkey brain midbrain after 55 mins postinjection; type: ADME, organism-based, Macaca fascicularis; design: unit not given here; conditions: in vivo
Pons [21] = test: Drug uptake in anesthetized cynomolgus monkey brain pons after 22.5 mins postinjection; type: ADME, organism-based, Macaca fascicularis; conditions: in vivo, 0.375 h
[22] = Drug uptake in anesthetized cynomolgus monkey brain occipital lobe after 22.5 mins postinjection; type: ADME, organism-based, Macaca fascicularis; conditions: in vivo, 0.375 h
Putamen [23] = test: Drug uptake in anesthetized cynomolgus monkey brain putamen after 165 mins postinjection; type: ADME, organism-based, Macaca fascicularis; conditions: in vivo, 2.75 h
Medulla [24] = test: Drug uptake in anesthetized cynomolgus monkey brain medulla after 105 mins postinjection; type: ADME, organism-based, Macaca fascicularis; conditions: in vivo, 1.75 h
[25] = Ratio of drug uptake in putamen to cerebellum in anesthetized cynomolgus monkey after 0.5 mins postinjection; type: ADME, organism-based, Macaca fascicularis; conditions: in vivo
Caudate [26] = test: Drug uptake in anesthetized cynomolgus monkey brain caudate after 225 mins postinjection; type: ADME, organism-based, Macaca fascicularis, Caudate nucleus; conditions: in vivo, 3.75 h
Pons [27] = test: Drug uptake in anesthetized cynomolgus monkey brain pons after 235 mins postinjection; type: ADME, organism-based, Macaca fascicularis; conditions: in vivo
Thalamus [28] = test: Drug uptake in anesthetized cynomolgus monkey brain thalamus after 55 mins postinjection; type: ADME, organism-based, Macaca fascicularis; design: unit not given here; conditions: in vivo
[29] = Drug uptake in anesthetized cynomolgus monkey brain occipital lobe after 145 mins postinjection; type: ADME, organism-based, Macaca fascicularis; conditions: in vivo
Putamen [30] = test: Drug uptake in anesthetized cynomolgus monkey brain putamen after 75 mins postinjection; type: ADME, organism-based, Macaca fascicularis; design: unit not given here; conditions: in vivo, 1.25 h
[31] = Ratio of drug uptake in medulla to cerebellum in anesthetized cynomolgus monkey after 35 mins postinjection; type: ADME, organism-based, Macaca fascicularis; conditions: in vivo
Thalamus [32] = test: Drug uptake in anesthetized cynomolgus monkey brain thalamus after 115 mins postinjection; type: ADME, organism-based, Macaca fascicularis; design: unit not given here; conditions: in vivo
[33] = Drug uptake in anesthetized cynomolgus monkey brain cerebellum after 2.5 mins postinjection; type: ADME, organism-based, Macaca fascicularis; conditions: in vivo
[34] = Drug uptake in anesthetized cynomolgus monkey brain frontal lobe after 235 mins postinjection; type: ADME, organism-based, Macaca fascicularis; conditions: in vivo
[35] = Drug uptake in anesthetized cynomolgus monkey brain cerebellum after 225 mins postinjection; type: ADME, organism-based, Macaca fascicularis; conditions: in vivo, 3.75 h
[36] = Ratio of drug uptake in occipital lobe to cerebellum in anesthetized cynomolgus monkey after 175 mins postinjection; type: ADME, organism-based, Macaca fascicularis; conditions: in vivo
Thalamus [37] = test: Drug uptake in anesthetized cynomolgus monkey brain thalamus after 135 mins postinjection; type: ADME, organism-based, Macaca fascicularis; design: unit not given here; conditions: in vivo, 2.25 h
Medulla [38] = test: Drug uptake in anesthetized cynomolgus monkey brain medulla after 18.5 mins postinjection; type: ADME, organism-based, Macaca fascicularis; conditions: in vivo
Midbrain [39] = test: Drug uptake in anesthetized cynomolgus monkey brain midbrain after 9.5 mins postinjection; type: ADME, organism-based, Macaca fascicularis; design: unit not given here; conditions: in vivo
Midbrain [40] = test: Drug uptake in anesthetized cynomolgus monkey brain midbrain after 185 mins postinjection; type: ADME, organism-based, Macaca fascicularis; conditions: in vivo
Pons [41] = test: Drug uptake in anesthetized cynomolgus monkey brain pons after 165 mins postinjection; type: ADME, organism-based, Macaca fascicularis; conditions: in vivo, 2.75 h
Pons [42] = test: Drug uptake in anesthetized cynomolgus monkey brain pons after 1.5 mins postinjection; type: ADME, organism-based, Macaca fascicularis; conditions: in vivo, 0.025 h
Pons [43] = test: Drug uptake in anesthetized cynomolgus monkey brain pons after 45 mins postinjection; type: ADME, organism-based, Macaca fascicularis; conditions: in vivo, 0.75 h
Pons [44] = test: Drug uptake in anesthetized cynomolgus monkey brain pons after 195 mins postinjection; type: ADME, organism-based, Macaca fascicularis; conditions: in vivo, 3.25 h
Midbrain [45] = test: Drug uptake in anesthetized cynomolgus monkey brain midbrain after 145 mins postinjection; type: ADME, organism-based, Macaca fascicularis; conditions: in vivo
[46] = Ratio of drug uptake in pons to cerebellum in anesthetized cynomolgus monkey after 195 mins postinjection; type: ADME, organism-based, Macaca fascicularis; conditions: in vivo, 3.25 h
[47] = Drug uptake in anesthetized cynomolgus monkey brain occipital lobe after 155 mins postinjection; type: ADME, organism-based, Macaca fascicularis; conditions: in vivo
[48] = Drug uptake in anesthetized cynomolgus monkey brain frontal lobe after 175 mins postinjection; type: ADME, organism-based, Macaca fascicularis; conditions: in vivo
Pons [49] = test: Drug uptake in anesthetized cynomolgus monkey brain pons after 145 mins postinjection; type: ADME, organism-based, Macaca fascicularis; conditions: in vivo
[50] = Drug uptake in anesthetized cynomolgus monkey brain frontal lobe after 165 mins postinjection; type: ADME, organism-based, Macaca fascicularis; conditions: in vivo, 2.75 h
[51] = Ratio of drug uptake in midbrain to cerebellum in anesthetized cynomolgus monkey after 85 mins postinjection; type: ADME, organism-based, Macaca fascicularis; conditions: in vivo
Thalamus [52] = test: Drug uptake in anesthetized cynomolgus monkey brain thalamus after 6.5 mins postinjection; type: ADME, organism-based, Macaca fascicularis; design: unit not given here; conditions: in vivo
Putamen [53] = test: Drug uptake in anesthetized cynomolgus monkey brain putamen after 6.5 mins postinjection; type: ADME, organism-based, Macaca fascicularis; design: unit not given here; conditions: in vivo
[54] = Ratio of drug uptake in occipital lobe to cerebellum in anesthetized cynomolgus monkey after 195 mins postinjection; type: ADME, organism-based, Macaca fascicularis; conditions: in vivo, 3.25 h
Midbrain [55] = test: Drug uptake in anesthetized cynomolgus monkey brain midbrain after 15.5 mins postinjection; type: ADME, organism-based, Macaca fascicularis; design: unit not given here; conditions: in vivo
Pons [56] = test: Drug uptake in anesthetized cynomolgus monkey brain pons after 125 mins postinjection; type: ADME, organism-based, Macaca fascicularis; conditions: in vivo
[57] = Ratio of drug uptake in frontal lobe to cerebellum in anesthetized cynomolgus monkey after 125 mins postinjection; type: ADME, organism-based, Macaca fascicularis; conditions: in vivo
Midbrain [58] = test: Drug uptake in anesthetized cynomolgus monkey brain midbrain after 6.5 mins postinjection; type: ADME, organism-based, Macaca fascicularis; design: unit not given here; conditions: in vivo
Midbrain [59] = test: Drug uptake in anesthetized cynomolgus monkey brain midbrain after 215 mins postinjection; type: ADME, organism-based, Macaca fascicularis; conditions: in vivo
Thalamus [60] = test: Drug uptake in anesthetized cynomolgus monkey brain thalamus after 155 mins postinjection; type: ADME, organism-based, Macaca fascicularis; design: unit not given here; conditions: in vivo
Medulla [61] = test: Drug uptake in anesthetized cynomolgus monkey brain medulla after 3.5 mins postinjection; type: ADME, organism-based, Macaca fascicularis; conditions: in vivo
Thalamus [62] = test: Drug uptake in anesthetized cynomolgus monkey brain thalamus after 45 mins postinjection; type: ADME, organism-based, Macaca fascicularis; design: unit not given here; conditions: in vivo, 0.75 h
Pons [63] = test: Drug uptake in anesthetized cynomolgus monkey brain pons after 18.5 mins postinjection; type: ADME, organism-based, Macaca fascicularis; conditions: in vivo
[64] = Ratio of drug uptake in pons to cerebellum in anesthetized cynomolgus monkey after 35 mins postinjection; type: ADME, organism-based, Macaca fascicularis; conditions: in vivo
Pons [65] = test: Drug uptake in anesthetized cynomolgus monkey brain pons after 225 mins postinjection; type: ADME, organism-based, Macaca fascicularis; conditions: in vivo, 3.75 h
Thalamus [66] = test: Drug uptake in anesthetized cynomolgus monkey brain thalamus after 85 mins postinjection; type: ADME, organism-based, Macaca fascicularis; design: unit not given here; conditions: in vivo
Medulla [67] = test: Drug uptake in anesthetized cynomolgus monkey brain medulla after 55 mins postinjection; type: ADME, organism-based, Macaca fascicularis; conditions: in vivo
Caudate [68] = test: Drug uptake in anesthetized cynomolgus monkey brain caudate after 0.5 mins postinjection; type: ADME, organism-based, Macaca fascicularis, Caudate nucleus; conditions: in vivo

Structure (SMILES): O=C(OCC[18F])C1C2CCC(CC1c1cccc(/C=C\Br)c1)N2 (stereo not drawn)
- Ratio [1]: 1.8
- Drug uptake (Pons [2]): 4.36
- Drug uptake (Pons [3]): 3.22
- Drug uptake [4]: 3.55
- Drug uptake [5]: 0.01
- Drug uptake (Putamen [6]): 4.33
- Ratio [7]: 1.1
- Ratio [8]: 1
- Ratio [9]: 1.4
- Drug uptake (Medulla [10]): 3.62
- Drug uptake (Thalamus [11]): 1.44
- Drug uptake (Pons [12]): 2.79
- Drug uptake (Midbrain [13]): 4.73
- Drug uptake (Pons [14]): 0.42
- Drug uptake (Pons [15]): 1.78
- Drug uptake (Medulla [16]): 4.7
- Ratio [17]: 0.9
- Drug uptake (Midbrain [18]): 4.96
- Drug uptake (Caudate [19]): 0.36
- Drug uptake (Midbrain [20]): 4.98
- Drug uptake (Pons [21]): 3.81
- Drug uptake [22]: 3.14
- Drug uptake (Putamen [23]): 3.92
- Drug uptake (Medulla [24]): 4.31
- Ratio [25]: 1.3
- Drug uptake (Caudate [26]): 2.93
- Drug uptake (Pons [27]): 3.08
- Drug uptake (Thalamus [28]): 4.38
- Drug uptake [29]: 2.74
- Drug uptake (Putamen [30]): 5
- Ratio [31]: 1.3
- Drug uptake (Thalamus [32]): 4.22
- Drug uptake [33]: 0.42
- Drug uptake [34]: 1.87
- Drug uptake [35]: 1.64
- Ratio [36]: 1.2
- Drug uptake (Thalamus [37]): 4.03
- Drug uptake (Medulla [38]): 4.39
- Drug uptake (Midbrain [39]): 3.41
- Drug uptake (Midbrain [40]): 4.14
- Drug uptake (Pons [41]): 3.9
- Drug uptake (Pons [42]): 0.09
- Drug uptake (Pons [43]): 4.45
- Drug uptake (Pons [44]): 3.63
- Drug uptake (Midbrain [45]): 4.65
- Ratio [46]: 2
- Drug uptake [47]: 2.67
- Drug uptake [48]: 2.19
- Drug uptake (Pons [49]): 4.16
- Drug uptake [50]: 2.38
- Ratio [51]: 1.5
- Drug uptake (Thalamus [52]): 2.44
- Drug uptake (Putamen [53]): 3.01
- Ratio [54]: 1.1
- Drug uptake (Midbrain [55]): 4.06
- Drug uptake (Pons [56]): 4.27
- Ratio [57]: 1
- Drug uptake (Midbrain [58]): 2.99
- Drug uptake (Midbrain [59]): 3.76
- Drug uptake (Thalamus [60]): 3.64
- Drug uptake (Medulla [61]): 1.26
- Drug uptake (Thalamus [62]): 4.15
- Drug uptake (Pons [63]): 4.13
- Ratio [64]: 1.1
- Drug uptake (Pons [65]): 2.77
- Drug uptake (Thalamus [66]): 4.41
- Drug uptake (Medulla [67]): 4.82
- Drug uptake (Caudate [68]): 0
